Read-outs that look alike come from different tables or passages of the source.
Legend:
SARS-CoV-2 M^pro [1] = target: T1, SARS-CoV-2 M^pro (Severe acute respiratory syndrome coronavirus 2, UniProt P0DTD1); test: SARS-CoV-2 M^pro inhibition assay (FRET substrate); format: biochemical; conditions: for IC50 / Ki: 0.2 μM enzyme, 20 μM substrate, pH 7, DMSO 2.5%; for IC50: equivalent to Ki^app; for Ki: intrinsic inhibition constant; for anti-M^pro inhibitory activity (in words): first-line screening at 100 μM
Protocol: A continuous assay based on Förster resonance energy transfer (FRET) to measure in vitro the catalytic activity of M^pro was implemented by using the substrate (Dabcyl)KTSAVLQSGFRKME(Edans)-NH2 (Biosyntan GmbH, Berlin, Germany) The enzymatic reaction was initiated by adding substrate at 20 μM (final concentration) to the enzyme at 0.2 μM (final concentration) in a final volume of 100 μL. The reaction buffer was sodium phosphate 50 mM, pH 7, NaCl 150 mM, and DMSO 2.5%. Fluorescence emission was measured in a FluoDia T70 microplate reader (Photon Technology International, Birmingham, NJ, USA) for 20 min (excitation wavelength, 380 nm; emission wavelength, 500 nm). The initial slope of the time evolution curve of the fluorescence emission signal provided a direct quantification of the enzymatic activity.
The in vitro inhibition potency of the compounds against M^pro was assessed through the estimation of the inhibition constant, Ki, and the half-maximal inhibitory concentration, IC50, from experimental inhibition curves. Inhibition curves were obtained by measuring the enzyme activity (at fixed 0.2 μM enzyme concentration and fixed 20 μM substrate concentration) as a function of compound concentration (serial 2-fold dilution from 125 µM to 0 μM), maintaining the percentage of DMSO (2.5%) constant. The enzymatic activity was quantitated as the initial slope of the substrate fluorescence emission time evolution curve, and was plotted as a function of compound concentration. The ratio between the activity (slope) in the presence and absence of the compound provides the residual percentage of activity at a given compound concentration. Nonlinear regression analysis employing a simple inhibition model (considering inhibitor depletion due to enzyme binding) allowed us to estimate the apparent inhibition constant, Ki^app, for each compound according to Equation (1):(1) [EI]=1/2([I]T+[E]T+Kiapp−([I]T+[E]T+Kiapp)^2−4[E]T[I]T)[I]=[I]T−[EI]=1/2([I]T−[E]T−Kiapp+([I]T+[E]T+Kiapp)^2−4[E]T[I]T)v([I])/v([I]=0)=1−[EI]/[E]T=1/1+[I]/Kiapp, where [EI] is the concentration of the enzyme–inhibitor complex, [E]T and [I]T are the total concentrations of the enzyme and the inhibitor, Ki^app is the apparent inhibition constant for the inhibitors (quercetin and derivatives), [I] is the concentration of the free inhibitor, and v is the initial slope of the enzymatic activity trace at a given (free) inhibitor concentration [I] (or total inhibitor concentration [I]T). No approximation for the free inhibitor concentration (e.g., assuming to be equal to the total inhibitor concentration) was made, thus having general validity for any total enzyme and inhibitor concentration and any value of the inhibition constant (even for tight-binding inhibitors). In addition, if the inhibitor acts through a purely competitive mechanism, the previous equation can be substituted by Equation (2):(2) v([I])/v([I]=0)=1/1+[I]/Kiapp=1/1+[I]/Ki(1+[S]/Km), where Ki is the intrinsic (i.e., substrate concentration-independent) inhibition constant, Km is the Michaelis–Menten constant for the enzyme–substrate interaction, and [S] is the substrate concentration. Because Km and [S] are known, the intrinsic inhibition constant can be determined. Furthermore, approximating the free compound concentration by the total compound concentration and neglecting ligand depletion, the Ki^app in Equation (2) is equivalent to the IC50, as reported in Table 3. However, it should be emphasized that the IC50 is an assay-dependent inhibition potency index (among other parameters, it depends on the enzyme and substrate concentrations, as well as on the Km); thus, the intrinsic inhibition constant is a better inhibition potency index. Uncertainties have been reported as 95% profile likelihood asymmetric confidence intervals, as especially recommended for equilibrium constants (i.e., binding association/dissociation constants and inhibition constants).

SARS-CoV-2 [2] = conditions: for Inhibition of the virus-caused cytopathic effect (CPE) / toxicity in the cellular infection model (in words): Vero cells; for Inhibition of the virus-caused cytopathic effect (CPE): 2 days; for SARS-CoV-2-related CPE reduction (in words): tested at 100, 75, 50, 25 and 10 µM, judged at non-toxic concentrations; for toxicity in the cellular infection model (in words) / precipitation in the medium (in words): 100-10 µM; for precipitation in the medium (in words): culture medium
SARS-CoV-2 [3] = test: Inhibition of SARS-CoV-2 replication in Vero cells by RT-qPCR; format: cell-based
Vero cells = test: XTT cell viability assay; format: cell-based, Cercopithecus aethiops; conditions: quercetin 500–100 µM; 2d 100–10 µM; Figure S2
Protocol: Cell viability was evaluated using the XTT Cell Viability Assay kit (Biological Industries, Cromwell, CT, USA) according to the manufacturer’s protocol. Vero, A549ACE2+, CRFK, HRT-18, LLC-MK2, and HSF cells were cultured on 96-well plates. Cells were incubated with ACF for 24 h at 37 °C in an atmosphere containing 5% CO2. After incubation, the medium was discarded and 100 µL of fresh medium was added to each well. Then, 25 µL of the activated 2,3-bis-(2-methoxy-4-nitro-5-sulphenyl)-(2H)-tetrazolium-5-carboxanilide (XTT) solution was added and samples were incubated for 2 h at 37 °C. The absorbance (λ = 450 nm) was measured using a Spectra MAX 250 spectrophotometer (Molecular Devices, San Jose, CA, USA). The obtained results were normalized to the control samples, where cell viability was set to 100%.

SARS-CoV-2 M^pro [4] = target: T1, SARS-CoV-2 M^pro; test: Reversibility test of M^pro interaction (SEC/dialysis, then activity and near-UV CD); format: biochemical; conditions: M^pro 24 μM incubated with compound 200 μM, 30 min, 25 °C, then SEC or dialysis

| SMILES | IC50 (SARS-CoV-2 M^pro [1]) [µM] | Ki (SARS-CoV-2 M^pro [1]) [µM] | Inhibition of the virus-caused cytopathic effect (CPE) (SARS-CoV-2 [2]; 10 µM) | Inhibition of the virus-caused cytopathic effect (CPE) (SARS-CoV-2 [2]; 25 µM) | Inhibition of the virus-caused cytopathic effect (CPE) (SARS-CoV-2 [2]; 75 µM) | Inhibition of the virus-caused cytopathic effect (CPE) (SARS-CoV-2 [2]; 100 µM) | melting point [°C] | further results |
| --- | --- | --- | --- | --- | --- | --- | --- | --- |
| COc1ccc([Se]c2c(O)cc(O)c3c(=O)c(O)c(-c4ccc(O)c(O)c4)oc23)cc1 [2e, 2-(3,4-Dihydroxyphenyl)-3,5,7-trihydroxy-8-((4-methoxyphenyl)selanyl)-4H-chromen-4-one] | 3 | 1.1 | - | - | tox | tox | 194 to 197 | Inhibition of the virus-caused cytopathic effect (CPE) (SARS-CoV-2 [2]; 50 µM): tox/- |
| O=c1c(O)c(-c2ccc(O)c(O)c2)oc2c([Se]c3ccccc3)c(O)c([Se]c3ccccc3)c(O)c12 [compound 3, 2-(3,4-Dihydroxyphenyl)-3,5,7-trihydroxy-6,8-bis(phenylselanyl)-4H-chromen-4-one] | 13 | 4.6 | - | - | tox | tox | 206 to 210 | Inhibition of the virus-caused cytopathic effect (CPE) (SARS-CoV-2 [2]; 50 µM): tox/- |
| O=c1cc(-c2ccccc2)oc2cc(OCC[Se]c3cccc(C(F)(F)F)c3)cc(O)c12 |  |  |  |  |  |  | 154.1 to 157.7 |  |
| Cc1cc(C)c([Se]CCOc2cc(O)c3c(=O)cc(-c4ccccc4)oc3c2)c(C)c1 |  |  |  |  |  |  | 135.7 to 138.4 |  |
| COc1ccccc1[Se]CCOc1cc(O)c2c(=O)cc(-c3ccccc3)oc2c1 |  |  |  |  |  |  | 132.9 to 135.6 |  |
| O=c1c(O)c(-c2ccc(O)c(O)c2)oc2c([Se]c3ccccc3)c(O)cc(O)c12 [2a, 2-(3,4-Dihydroxyphenyl)-3,5,7-trihydroxy-8-(phenylselanyl)-4H-chromen-4-one] | 5.1 | 1.8 | - | - | tox | tox | 211 to 213 | inhibition of SARS-CoV-2 replication by RT-qPCR (in words) (SARS-CoV-2 [3]; Vero cells, Figure S1): did not indicate any inhibition; Inhibition of the virus-caused cytopathic effect (CPE) (SARS-CoV-2 [2]; 50 µM): +; SARS-CoV-2-related CPE reduction (in words) (SARS-CoV-2 [2]): inhibited the development of the CPE |
| O=c1cc(-c2ccccc2)oc2cc(OCC[Se]c3ccc(F)cc3)cc(O)c12 |  |  |  |  |  |  | 171.1 to 173.7 |  |
| O=c1cc(-c2ccccc2)oc2cc(OCC[Se]c3ccccc3)cc(O)c12 [7a, 5-Hydroxy-2-phenyl-7-(2-(phenylselanyl)ethoxy)-4H-chromen-4-one] | > 100 | > 100 |  |  |  |  | 155 to 156 |  |
| O=c1cc(-c2ccccc2)oc2cc(OCC[Te]c3ccccc3)cc(O)c12 [compound 8, 5-Hydroxy-2-phenyl-7-[2-(phenyltellanyl)ethoxy]-4H-chromen-4-one] | 3.3 | 1.1 |  |  | prec/tox | prec/tox | 128 to 129 | toxicity in the cellular infection model (in words) (SARS-CoV-2 [2]): toxic; precipitation in the medium (in words) (SARS-CoV-2 [2]): precipitated; SARS-CoV-2-related CPE reduction (in words) (SARS-CoV-2 [2]): No CPE reduction |
| O=c1cc(-c2ccccc2)oc2cc(OCC[Se]Cc3ccccc3)cc(O)c12 |  |  |  |  |  |  | 115.4 to 118.2 |  |
| Cc1ccccc1[Se]CCOc1cc(O)c2c(=O)cc(-c3ccccc3)oc2c1 |  |  |  |  |  |  | 123.9 to 127.4 |  |
| CCCCCCCCCC[Se]c1c(O)cc(O)c2c(=O)c(O)c(-c3ccc(O)c(O)c3)oc12 [2b, 2-(3,4-Dihydroxyphenyl)-3,5,7-trihydroxy-8-(decylselenyl)-4H-chromen-4-one] | > 100 | > 100 |  |  |  |  | 155 to 159 | anti-M^pro inhibitory activity (in words) (SARS-CoV-2 M^pro [1]): devoid of any noticeable anti-M^pro inhibitory activity |
| O=c1cc(-c2ccccc2)oc2c([Se]c3ccccc3)c(O)c([Se]c3ccccc3)c(O)c12 [compound 6, 5,7-Dihydroxy-2-phenyl-6,8-bis(phenylselanyl)-4H-chromen-4-one] | > 100 | > 100 |  |  |  |  | 188.7 to 190.6 | anti-M^pro inhibitory activity (in words) (SARS-CoV-2 M^pro [1]): devoid of any noticeable anti-M^pro inhibitory activity |
| O=c1cc(-c2ccccc2)oc2cc(OCC[Te]c3ccc(Cl)cc3)cc(O)c12 [compound 9, 7-{2-[(4-Chlorophenyl)tellanyl]ethoxy}-5-hydroxy-2-phenyl-4H-chromen-4-one] | 2.2 | 0.77 | - | - | prec/- | prec/tox | 140.3 to 143 | toxicity in the cellular infection model (in words) (SARS-CoV-2 [2]): toxic; precipitation in the medium (in words) (SARS-CoV-2 [2]): precipitated; SARS-CoV-2-related CPE reduction (in words) (SARS-CoV-2 [2]): No CPE reduction |
| O=c1c(O)c(-c2ccc(O)c(O)c2)oc2cc(O)cc(O)c12 [Quercetin 1, quercetin] |  |  | - | - | - | - |  | IC50 (SARS-CoV-2 [3]; Severe acute respiratory syndrome coronavirus 2, Vero, 48 h, infected Vero cells, 2 days, nonlinear regression, read-out: IC50 of SARS-CoV-2 replication (RT-qPCR)): 192 µM; logIC50 of SARS-CoV-2 replication (RT-qPCR) (SARS-CoV-2 [3]; log of concentration in µM, Figure S4): 2,284; cytotoxicity on Vero cells (in words) (Vero cells): none of the tested concentrations exhibited cytotoxicity; reversibility of the interaction with M^pro (SARS-CoV-2 M^pro [4]; listed as 1): reversible interaction; reversibility of the interaction with M^pro (SARS-CoV-2 M^pro [4]; listed as quercetin): reversible; Inhibition of the virus-caused cytopathic effect (CPE) (SARS-CoV-2 [2]; 50 µM): -; Inhibition of the virus-caused cytopathic effect (CPE) (SARS-CoV-2 [2]; 200 µM): +; Inhibition of the virus-caused cytopathic effect (CPE) (SARS-CoV-2 [2]; 250 µM): +; Inhibition of the virus-caused cytopathic effect (CPE) (SARS-CoV-2 [2]; 300 µM): +; Inhibition of the virus-caused cytopathic effect (CPE) (SARS-CoV-2 [2]; 400 µM): +; Inhibition of the virus-caused cytopathic effect (CPE) (SARS-CoV-2 [2]; 500 µM): + |
| CCCC[Se]c1c(O)cc(O)c2c(=O)c(O)c(-c3ccc(O)c(O)c3)oc12 [2c, 2-(3,4-Dihydroxyphenyl)-3,5,7-trihydroxy-8-(butylselenyl)-4H-chromen-4-one] | 24 | 8.6 |  |  |  |  | 159 to 163 |  |

Reference: paper PMC8268238, “Seleno-Functionalization of Quercetin Improves the Non-Covalent Inhibition of M^pro and Its Antiviral Activity in Cells against SARS-CoV-2” (International Journal of Molecular Sciences, 2021)
